The values that follow come from patent publication US20260256775A1, “METHOD FOR TREATING MENTAL DISEASES” (SHANGHAI RAISING PHARMACEUTICAL CO., LTD., priority 2022, published 2026).

Experiment [1] has as its system Chronic Unpredictable Mild Stress (CUMS) Depressive Rats. Kind of experiment: Elevated plus maze (EPM) test in CUMS model rats. The following applies: 9th week of CUMS, 5-minute EPM, trazodone 10 mg/kg/day ig, x ± SD.
For experiment [2] the test system is unchanged. Briefly: Forced swimming test (FST) in CUMS model rats. The following applies: 8th week of CUMS, 6-minute forced swimming, trazodone 10 mg/kg/day ig, x ± SD.
For experiment [3] the test system is unchanged. Briefly: Sucrose preference test (SPT) in CUMS model rats. To be noted: trazodone 10 mg/kg/day ig, x ± SD; for SPT After 2 Weeks of Treatment (%): 5th week of CUMS; for SPT After 4 Weeks of Treatment (%): 7th week of CUMS.

SMILES strings stand for the structures.

Turning to `O=c1n(CCCN2CCN(c3cccc(Cl)c3)CC2)nc2ccccn12` [Trazodone], the “Time Spent Exploring the Open Arms in the 6th Week of Treatment (s)” value in experiment [1] (n=8) is recorded as 4.90 ± 2.06 ^ s; in experiment [1] (n=8, listed as trazodone), “no significant change”. Besides, the “Immobility Time in FST After 5 Weeks of Treatment (s)” value is given as 82.28 ± 21.64 ^ s in experiment [2] (n=8) and “reduced” in experiment [2] (n=8, listed as trazodone). Moreover, the “SPT After 2 Weeks of Treatment (%)” value was 74.00 ± 11.22% in experiment [3] (n=8) and “no significant difference” in experiment [3] (n=8, listed as trazodone). For the same molecule, the “SPT After 4 Weeks of Treatment (%)” value in experiment [3] (n=8) was 84.55 ± 16.77 ^ %; in experiment [3] (n=8, listed as trazodone), “significantly increased”.
